This is an account of results in ChEMBL document CHEMBL5352415, “Discovery of new macrophage M2 polarization modulators as multiple sclerosis treatment agents that enable the inflammation microenvironment remodeling” (Eur J Med Chem, 2022).

Active and inactive are the calls of the source. The calls are words filed in the database; no cut-off is given here.

Series [1] deals with RAC-alpha serine/threonine-protein kinase (Homo sapiens, UniProt P31749). Kind of series: Inhibition of AKT1 (unknown origin). The series is classed as binding.
Chain of RAC-alpha serine/threonine-protein kinase (Homo sapiens, UniProt P31749) (P31749 whole entry): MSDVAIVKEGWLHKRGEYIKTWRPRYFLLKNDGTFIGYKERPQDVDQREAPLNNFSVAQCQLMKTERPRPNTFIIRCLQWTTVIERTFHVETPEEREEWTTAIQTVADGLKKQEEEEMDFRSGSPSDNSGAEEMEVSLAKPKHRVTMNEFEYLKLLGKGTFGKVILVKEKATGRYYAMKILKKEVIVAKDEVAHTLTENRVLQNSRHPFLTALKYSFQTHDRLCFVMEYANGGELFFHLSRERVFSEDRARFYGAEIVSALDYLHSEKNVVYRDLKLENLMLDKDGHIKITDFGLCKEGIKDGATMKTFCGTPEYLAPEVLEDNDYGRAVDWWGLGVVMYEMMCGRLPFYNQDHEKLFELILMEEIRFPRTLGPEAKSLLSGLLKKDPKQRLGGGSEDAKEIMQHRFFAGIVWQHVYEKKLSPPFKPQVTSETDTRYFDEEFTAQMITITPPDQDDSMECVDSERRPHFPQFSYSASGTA
Series [2] can be described thus: Tmax in ICR mouse at 50 mg/kg, po measured upto 24 hrs by LC/MS analysis. The series is classed as ADME, organism-based. Particulars: in vivo.
A short description of series [3]: Cmax in ICR mouse at 50 mg/kg, po measured upto 24 hrs by LC/MS analysis. Particulars: in vivo. In kind it is ADME, organism-based. Also on record: dose 50 mg/kg, time < 24 hrs, route po.
The test system of series [4] is Mus musculus. Kind of series: Anti-inflammatory activity in MOG (35 to 55 residues)/pertussis toxin-induced experimental autoimmune encephalomyelitis C57BL/6 mouse model assessed as decrease in disease progression by measuring clinical score at 75 to 150 mg/kg, po administered once daily starting from day 7 to day 20. In kind it is functional, organism-based. As to conditions: dose 75-150 mg/kg, time 14.0 day.

The subject of series [5] is Mus musculus. Kind of series: Anti-inflammatory activity in MOG (35 to 55 residues)/pertussis toxin-induced experimental autoimmune encephalomyelitis C57BL/6 mouse model assessed as attenuation of demyelination in spinal cord at 75 to 150 mg/kg, po administered once daily starting from day 7 to day 20 by luxol fast blue staining based analysis. The series is classed as functional, organism-based. As to conditions: dose 75-150 mg/kg, time 14.0 day.

The test system of series [6] is Mus musculus. Kind of series: Anti-inflammatory activity in MOG (35 to 55 residues)/pertussis toxin-induced experimental autoimmune encephalomyelitis C57BL/6 mouse model assessed as M2 macrophage polarization by measuring increase in Ym1 mRNA expression in CNS at 75 to 150 mg/kg, po administered once daily starting from day 7 to day 20 by qRT-PCR analysis. In kind it is functional, organism-based. As to conditions: dose 75-150 mg/kg, time 14.0 day. A general note: In qPCR the cycle at which signal appears reflects the starting amount.

Series [7] concerns Mus musculus. The experiment in a line: Anti-inflammatory activity in MOG (35 to 55 residues)/pertussis toxin-induced experimental autoimmune encephalomyelitis C57BL/6 mouse model assessed as inhibition of M1 macrophage polarization by measuring decrease in Mcp1 mRNA expression in CNS administered orally once daily starting from day 7 to day 20 by qRT-PCR analysis. In kind it is functional, organism-based. Particulars: dose 75-150 mg/kg, route po, time 14.0 day.

Series [8] concerns Mus musculus. Kind of series: Anti-inflammatory activity in MOG (35 to 55 residues)/pertussis toxin-induced experimental autoimmune encephalomyelitis C57BL/6 mouse model assessed as inhibition of M1 macrophage polarization by measuring decrease in Inos mRNA expression in CNS administered orally once daily starting from day 7 to day 20 by qRT-PCR analysis. The series is classed as functional, organism-based. Particulars: dose 75-150 mg/kg, route po, time 14.0 day.

In series [9] the test system is Mus musculus. The experiment in a line: Anti-inflammatory activity in MOG (35 to 55 residues)/pertussis toxin-induced experimental autoimmune encephalomyelitis C57BL/6 mouse model assessed as inhibition of M1 macrophage polarization by measuring decrease in IL-6 mRNA expression in CNS at 75 to 150 mg/kg, po administered once daily starting from day 7 to day 20 by qRT-PCR analysis. The series is classed as functional, organism-based. As to conditions: dose 75-150 mg/kg, time 14.0 day.

Series [10] has as its system Mus musculus. The experiment in a line: Anti-inflammatory activity in MOG (35 to 55 residues)/pertussis toxin-induced experimental autoimmune encephalomyelitis C57BL/6 mouse model assessed as inhibition of M1 macrophage polarization by measuring decrease in interferon-gamma mRNA expression in CNS at 75 to 150 mg/kg, po administered once daily starting from day 7 to day 20 by qRT-PCR analysis. The series is classed as functional, organism-based. Particulars: dose 75-150 mg/kg, time 14.0 day.

Series [11] concerns Mus musculus. Kind of series: Anti-inflammatory activity in MOG (35 to 55 residues)/pertussis toxin-induced experimental autoimmune encephalomyelitis C57BL/6 mouse model assessed as increase in F4/80+ CD206+ M2 macrophage in spleen at 75 to 150 mg/kg, po administered once daily starting from day 7 to day 20 by flow cytometric analysis. In kind it is functional. Particulars: dose 75-150 mg/kg, time 14 day. For orientation: Flow cytometry measures light scatter and fluorescence of single cells or particles in a stream.

Series [12] relates to Mus musculus. Kind of series: Anti-inflammatory activity in MOG (35 to 55 residues)/pertussis toxin-induced experimental autoimmune encephalomyelitis C57BL/6 mouse model assessed as inhibition of CD4+ T cell differentiation by measuring reduction in Th1 (IFN-gamma+) cells in DLN administered orally once daily starting from day 7 to day 20 by flow cytometric analysis. In kind it is functional, organism-based. As to conditions: dose 75-150 mg/kg, route po, time 14.0 day.

For series [13], the system named is Mus musculus. The experiment in a line: Anti-inflammatory activity in MOG (35 to 55 residues)/pertussis toxin-induced experimental autoimmune encephalomyelitis C57BL/6 mouse model assessed as inhibition of CD4+ T cell differentiation by measuring reduction in Th17 (Il-4+) cells in DLN administered orally once daily starting from day 7 to day 20 by flow cytometric analysis. As to conditions: dose 75-150 mg/kg, route po, time 14.0 day. The series is classed as functional, organism-based.

Series [14] relates to Mus musculus. The experiment in a line: Anti-inflammatory activity in MOG (35 to 55 residues)/pertussis toxin-induced experimental autoimmune encephalomyelitis C57BL/6 mouse model assessed as inhibition of CD4+ T cell differentiation by measuring reduction in Th1 (IFN-gamma+) cells in spleen administered orally once daily starting from day 7 to day 20 by flow cytometric analysis. The series is classed as functional, organism-based. Particulars: dose 75-150 mg/kg, route po, time 14.0 day.

For series [15], the system named is Mus musculus. The experiment in a line: Anti-inflammatory activity in MOG (35 to 55 residues)/pertussis toxin-induced experimental autoimmune encephalomyelitis C57BL/6 mouse model assessed as inhibition of CD4+ T cell differentiation by measuring reduction in Th17 (Il-4+) cells in spleen administered orally once daily starting from day 7 to day 20 by flow cytometric analysis. The series is classed as functional, organism-based. As to conditions: dose 75-150 mg/kg, route po, time 14.0 day.

Series [16] can be described thus: Induction of M2 macrophage polarization in C57BL/6 mouse BMDM cells assessed as fold increase in Ym1 gene level at 1 uM incubated for 24 hrs by qRT-PCR analysis. The series is classed as functional.
Series [17] in a line: Inhibition of M1 macrophage polarization in C57BL/6 mouse BMDM cells assessed as fold decrease in Inos gene level at 1 uM incubated for 24 hrs by qRT-PCR analysis (reference value: 1). The series is classed as functional.
The nature of series [18]: Inhibition of LPS-induced M1 macrophage polarization in C57BL/6 mouse BMDM cells assessed as fold decrease in Inos gene level at 1 uM preincubated with LPS for 24 hrs followed by compound addition and measured after 24 hrs by qRT-PCR analysis (reference value: 524.05 +/- 24.75). In kind it is functional.
Series [19] is described as follows: Inhibition of LPS-induced M1 macrophage polarization in C57BL/6 mouse BMDM cells assessed as fold change in IL-6 gene level at 1 uM preincubated with LPS for 24 hrs followed by compound addition and measured after 24 hrs by qRT-PCR analysis (reference value: 36.05 +/- 10.74). The series is classed as functional.
Series [20] is described as follows: Inhibition of LPS-induced M1 macrophage polarization in C57BL/6 mouse BMDM cells assessed as fold change in IL-1beta gene level at 1 uM preincubated with LPS for 24 hrs followed by compound addition and measured after 24 hrs by qRT-PCR analysis (reference value: 44.88 +/- 1.99). The series is classed as functional.
The subject of another series is BMDM. Kind of series: Inhibition of LPS-induced M1 macrophage polarization in C57BL/6 mouse BMDM cells assessed as decrease in IFN-gamma level preincubated with LPS for 24 hrs followed by compound addition and measured after 24 hrs by qRT-PCR analysis. In kind it is functional, cell-based. Particulars: dose 0.05-2 µM.
Series [21] concerns the target T1, RAC-alpha serine/threonine-protein kinase (Mus musculus, UniProt P31750). Kind of series: Inhibition of Akt phosphorylation at Ser473 in C57BL/6 mouse BMDM cells at 50 to 500 nM incubated for 24 hrs by Western blot analysis. The series is classed as cell-based. As to conditions: 0.5 µM, dose 50-500 nM. In general terms: In western blotting, separated proteins are transferred to a membrane and probed.

The target of series [22] is T1, RAC-alpha serine/threonine-protein kinase. Kind of series: Inhibition of LPS-induced Akt phosphorylation at Ser473 in C57BL/6 mouse BMDM cells at 50 to 500 nM incubated for 24 hrs by Western blot analysis. The series is classed as cell-based. Particulars: 0.5 µM, dose 50-500 nM.

T1 sequence (P31750 whole entry): as the sequence (P31749 whole entry) above, with S2N, A50S, T100A, K112R, E117T, K389T, G410N, H415D counted along it

As to `Cl.Cn1ncc(Br)c1-c1ccc(C(=O)N[C@@H]2CNCC[C@H]2c2ccc(F)c(F)c2)cc1C1CC1`, the IC50 (usually the concentration that gives 50% inhibition) in series [1] was determined as 434 nM. In addition, the Tmax – broadly, the time from dosing to the highest level – in [2] came to 4 h. In addition, in series [3], the Cmax (in general, the peak of the concentration-time curve) is 1990 ng/mL. The outcome in the series with Mus musculus [4], with Mus musculus [5], in the series with Mus musculus [6], in the series on Mus musculus [9] and with Mus musculus [10] was Active. Also, the Activity entry was “Dose-Dependent Effect” with Mus musculus [7]; “Dose-Dependent Effect” in the series with Mus musculus [8]; 12.4% with Mus musculus [11]; “Dose-Dependent Effect” in the series with Mus musculus [12]; “Dose-Dependent Effect” with Mus musculus [13]; “Dose-Dependent Effect” with Mus musculus [14]. The Activity entry in the series with Mus musculus [15] was “Dose-Dependent Effect”. Besides, the “fold change (FC)” value in series [16] worked out at 14.31; in [17] it was 0.49; in [18], 195.4; in series [19] it was 69.99; in [20], 71.77. Also, the inhibition result in the series with BMDM was “Dose-Dependent Effect”. The “inhibition (INH)” value in series [21] and in series [22] was “Not Active” each time.
